Values of other authors as cited in patent publication US20030073069A1, “Drug rescue by redesign of ADMET/PK properties” (priority 2001, published 2003).

tested on: P450; details: induction of a P450

Compared with `CC(=O)Nc1ccc(O)cc1` [acetaminophen], `CCC(=O)C(CC(C)N(C)C)(c1ccccc1)c1ccccc1` (stereo not drawn) [methadone] is higher in “No. of currently known drug interactions that involve the compound, Induction” value: 4 for the first, 8 for the second.

Going from `C[C@H]1C[C@H]2[C@@H]3CCC4=CC(=O)C=C[C@]4(C)[C@@]3(F)[C@@H](O)C[C@]2(C)[C@@]1(O)C(=O)CO` [betamethasone] to `C[C@@H]1C[C@H]2[C@@H]3CCC4=CC(=O)C=C[C@]4(C)[C@@]3(F)[C@@H](O)C[C@]2(C)[C@@]1(O)C(=O)CO` [dexamethasone], the “No. of currently known drug interactions that involve the compound, Induction” value falls from 15 to 14.

Going from `O=C1CC2(CCCC2)CC(=O)N1CCCCN1CCN(c2ncccn2)CC1` [buspirone] to `O=C(CCCN1CCC(O)(c2ccc(Cl)cc2)CC1)c1ccc(F)cc1` [haloperidol], the “No. of currently known drug interactions that involve the compound, Induction” value rises from 2 to 3.

Compared with `C[C@]12CCC(=O)C=C1CC[C@@H]1[C@@H]2C(=O)C[C@@]2(C)[C@H]1CC[C@]2(O)C(=O)CO` [cortisone], `C[C@]12CCC(=O)C=C1CC[C@H]1[C@@H]3CC[C@](O)(C(=O)CO)[C@@]3(C)C[C@H](O)[C@@]12F` [fludrocortisone] is lower in “No. of currently known drug interactions that involve the compound, Induction” value: 15 for the first, 14 for the second.

`CC(C)Nc1cccnc1N1CCN(C(=O)c2cc3cc(NS(C)(=O)=O)ccc3[nH]2)CC1` [delavirdine] and `CC(=O)N1CCN(c2ccc(OCC3COC(Cn4ccnc4)(c4ccc(Cl)cc4Cl)O3)cc2)CC1` (stereo not drawn) [ketoconazole] are the same in “No. of currently known drug interactions that involve the compound, Induction” value: 2 for the first, 2 for the second.

Compared with `COc1ccc2c(c1)[C@]13CCCC[C@@H]1[C@H](C2)N(C)CC3` [detromethorphan], `C=C[C@H]1C[N@@]2CC[C@H]1C[C@H]2[C@H](O)c1ccnc2ccc(OC)cc12` [quinine] is higher in “No. of currently known drug interactions that involve the compound, Induction” value: 1 for the first, 2 for the second.

`CC(C)N(CCC(C(N)=O)(c1ccccc1)c1ccccn1)C(C)C` (stereo not drawn) [disopyramide] and `CC(C)c1nc(CN(C)C(=O)N[C@H](C(=O)N[C@@H](Cc2ccccc2)C[C@H](O)[C@H](Cc2ccccc2)NC(=O)OCc2cncs2)C(C)C)cs1` [ritonavir] are the same in “No. of currently known drug interactions that involve the compound, Induction” value: 3 for the first, 3 for the second.

Going from `C[C@H]1c2cccc(O)c2C(=O)C2=C(O)[C@]3(O)C(=O)C(C(N)=O)=C(O)[C@@H](N(C)C)[C@@H]3[C@@H](O)[C@@H]21` [doxycycline] to `Cc1c(O)cccc1C(=O)N[C@@H](CSc1ccccc1)[C@H](O)CN1C[C@H]2CCCC[C@H]2C[C@H]1C(=O)NC(C)(C)C` [nelfinavir], the “No. of currently known drug interactions that involve the compound, Induction” value falls from 3 to 2.

Compared with `CCC(C)n1ncn(-c2ccc(N3CCN(c4ccc(OCC5COC(Cn6cncn6)(c6ccc(Cl)cc6Cl)O5)cc4)CC3)cc2)c1=O` (stereo not drawn) [itraconazole], `Clc1ccc(COC(Cn2ccnc2)c2ccc(Cl)cc2Cl)c(Cl)c1` (stereo not drawn) [miconazole] is lower in “No. of currently known drug interactions that involve the compound, Induction” value: 5 for the first, 2 for the second.

For `CCC1(c2ccccc2)C(=O)NC(=O)NC1=O` [phenobarbital], the “No. of currently known drug interactions that involve the compound, Induction” value is listed as 1.

tested on: P450; details: not given

`CN1C[C@H](C(=O)N[C@]2(C)O[C@@]3(O)[C@@H]4CCCN4C(=O)[C@H](Cc4ccccc4)N3C2=O)C[C@@H]2c3cccc4[nH]cc(c34)C[C@H]21` [dihydroergotamine] and `CN1C[C@H](C(=O)N[C@]2(C)O[C@@]3(O)[C@@H]4CCCN4C(=O)[C@H](Cc4ccccc4)N3C2=O)C=C2c3cccc4[nH]cc(c34)C[C@H]21` [ergotamine] are the same in “No. of currently known drug interactions that involve the compound, Inhibition” value: 7 for the first, 7 for the second.

Compared with `O=C1CN=C(c2ccccc2)c2cc(Cl)ccc2N1CC1CC1` [prazapam], `CCC(=O)O[C@](Cc1ccccc1)(c1ccccc1)[C@H](C)CN(C)C` [propoxyphene] is lower in “No. of currently known drug interactions that involve the compound, Inhibition” value: 2 for the first, 1 for the second.

same assay, conditions: inhibition of a P450

`CC(=O)CC(c1ccc([N+](=O)[O-])cc1)c1c(O)c2ccccc2oc1=O` (stereo not drawn) [acenocoumarol] and `CCC(c1ccccc1)c1c(O)c2ccccc2oc1=O` (stereo not drawn) [phenprocoumon] are the same in “No. of currently known drug interactions that involve the compound, Inhibition” value: 1 for the first, 1 for the second.

`CC(=O)c1ccc2c(c1)N(CCCN1CCN(CCO)CC1)c1ccccc1S2` [acetophenazine] and `OCCN1CCN(CCCN2c3ccccc3Sc3ccc(Cl)cc32)CC1` [perphenazine] are the same in “No. of currently known drug interactions that involve the compound, Inhibition” value: 1 for the first, 1 for the second.

Going from `Clc1ccc2c(c1)C(N1CCNCC1)=Nc1ccccc1O2` [amoxapine] to `CN(C)CCCN1c2ccccc2Sc2ccc(Cl)cc21` [chlorpromazine], the “No. of currently known drug interactions that involve the compound, Inhibition” value falls from 3 to 1.

Compared with `COc1ccc(CCN2CCC(Nc3nc4ccccc4n3Cc3ccc(F)cc3)CC2)cc1` [astemizole], `O=c1[nH]c2ccccc2n1C1CCN(CCCC(c2ccc(F)cc2)c2ccc(F)cc2)CC1` [pimozide] is lower in “No. of currently known drug interactions that involve the compound, Inhibition” value: 10 for the first, 3 for the second.

`CC(C)COCC(CN(Cc1ccccc1)c1ccccc1)N1CCCC1` (stereo not drawn) [bepridil] and `CC(CN1c2ccccc2Sc2ccccc21)N(C)C` (stereo not drawn) [promethazine] are the same in “No. of currently known drug interactions that involve the compound, Inhibition” value: 1 for the first, 1 for the second.

Going from `COCc1c(C(C)C)nc(C(C)C)c(/C=C/[C@@H](O)C[C@@H](O)CC(=O)O)c1-c1ccc(F)cc1` [cerivastatin] to `CC(C)n1c(/C=C/C(O)CC(O)CC(=O)O)c(-c2ccc(F)cc2)c2ccccc21` (stereo not drawn) [fluvastatin], the “No. of currently known drug interactions that involve the compound, Inhibition” value falls from 5 to 1.

`CCN(CC)CCCC(C)Nc1ccnc2cc(Cl)ccc12` (stereo not drawn) [chloroquine] and `CCC(=O)c1ccc2c(c1)N(CC(C)N(C)C)c1ccccc1S2` (stereo not drawn) [propiomazine] are the same in “No. of currently known drug interactions that involve the compound, Inhibition” value: 1 for the first, 1 for the second.

Compared with `COc1cc(N)c(Cl)cc1C(=O)NC1CCN(CCCOc2ccc(F)cc2)CC1OC` (stereo not drawn) [cisapride], `COc1ccc(C(=O)Nc2ccccc2CCC2CCCCN2C)cc1` (stereo not drawn) [encainide] is lower in “No. of currently known drug interactions that involve the compound, Inhibition” value: 15 for the first, 2 for the second.

Compared with `O=C(NCC1CCCCN1)c1cc(OCC(F)(F)F)ccc1OCC(F)(F)F` (stereo not drawn) [flecainide], `OCCN1CCN(CCCN2c3ccccc3Sc3ccc(C(F)(F)F)cc32)CC1` [fluphenazine] is lower in “No. of currently known drug interactions that involve the compound, Inhibition” value: 2 for the first, 1 for the second.

First: CC[C@H](C)C(=O)O[C@H]1C[C@@H](C)C=C2C=C[C@H](C)[C@H](CC[C@@H]3C[C@@H](O)CC(=O)O3)[C@H]21 [lovastatin]
Second: CC[C@H](C)C(=O)O[C@H]1C[C@H](O)C=C2C=C[C@H](C)[C@H](CC[C@@H](O)C[C@@H](O)CC(=O)O)[C@H]21 [pravastatin]
The “No. of currently known drug interactions that involve the compound, Inhibition” value of the first is higher: 5 for the first, 1 for the second.

`CN1CCCCC1CCN1c2ccccc2Sc2ccc([S+](C)[O-])cc21` (stereo not drawn) [mesoridazine] and `CCSc1ccc2c(c1)N(CCCN1CCN(C)CC1)c1ccccc1S2` [thiethylperazine] are the same in “No. of currently known drug interactions that involve the compound, Inhibition” value: 1 for the first, 1 for the second.

`COc1ccc2c(c1)N(C[C@H](C)CN(C)C)c1ccccc1S2` [methotrimeprazine] and `CN(C)CCCN1c2ccccc2Sc2ccc(C(F)(F)F)cc21` [triflupromazine] are the same in “No. of currently known drug interactions that involve the compound, Inhibition” value: 1 for the first, 1 for the second.

Going from `COc1ccc2[nH]c([S+]([O-])Cc3ncc(C)c(OC)c3C)nc2c1` (stereo not drawn) [omeprazole] to `CC[C@]1(O)C[C@@H]2CN(CCc3c([nH]c4ccccc34)[C@@](C(=O)OC)(c3cc4c(cc3OC)N(C)[C@H]3[C@@](O)(C(=O)OC)[C@H](OC(C)=O)[C@]5(CC)C=CCN6CC[C@]43[C@@H]65)C2)C1` [vinblastine], the “No. of currently known drug interactions that involve the compound, Inhibition” value rises from 1 to 4.

`CN1C(C(=O)Nc2ccccn2)=C(O)c2ccccc2S1(=O)=O` [piroxicam] and `CN(C)CCCN1c2ccccc2Sc2ccccc21` [promazine] are the same in “No. of currently known drug interactions that involve the compound, Inhibition” value: 1 for the first, 1 for the second.

First: CNCCCC1c2ccccc2C=Cc2ccccc21 [protriptyline]
Second: CN1CCN(CCCN2c3ccccc3Sc3ccc(C(F)(F)F)cc32)CC1 [trifluoperazine]
The “No. of currently known drug interactions that involve the compound, Inhibition” value of the first is higher: 3 for the first, 1 for the second.

Going from `CO[C@H]1/C=C/O[C@@]2(C)Oc3c(C)c(O)c4c(c3C2=O)C2=NC3(CCN(CC(C)C)CC3)NC2=C(NC(=O)/C(C)=C\C=C\[C@H](C)[C@H](O)[C@@H](C)[C@@H](O)[C@@H](C)[C@H](OC(C)=O)[C@@H]1C)C4=O` [rifabutin] to `CO[C@H]1/C=C/O[C@@]2(C)Oc3c(C)c(O)c4c(O)c(c(/C=N/N5CCN(C6CCCC6)CC5)c(O)c4c3C2=O)NC(=O)/C(C)=C\C=C\[C@H](C)[C@H](O)[C@@H](C)[C@@H](O)[C@@H](C)[C@H](OC(C)=O)[C@@H]1C` [rifapentine], the “No. of currently known drug interactions that involve the compound, Inhibition” value falls from 6 to 2.

First: CC(C)(C)NC(=O)[C@@H]1C[C@@H]2CCCC[C@@H]2CN1C[C@@H](O)[C@H](Cc1ccccc1)NC(=O)[C@H](CC(N)=O)NC(=O)c1ccc2ccccc2n1 [saquinavir]
Second: CC[C@]1(O)C[C@H]2CN(CCc3c([nH]c4ccccc34)[C@@](C(=O)OC)(c3cc4c(cc3OC)N(C=O)[C@H]3[C@@](O)(C(=O)OC)[C@H](OC(C)=O)[C@]5(CC)C=CCN6CC[C@]43[C@@H]65)C2)C1 [vincristine]
The “No. of currently known drug interactions that involve the compound, Inhibition” value of the first is lower: 2 for the first, 4 for the second.

`CC(C)(C)NC[C@H](O)COc1nsnc1N1CCOCC1` [timolol] and `CCCCNC(=O)NS(=O)(=O)c1ccc(C)cc1` [tolbutamide] are the same in “No. of currently known drug interactions that involve the compound, Inhibition” value: 1 for the first, 1 for the second.

For `CCCC(CCC)C(=O)O` [valproic acid], the “No. of currently known drug interactions that involve the compound, Inhibition” value is listed as 1.
